Test results published in PubChem BioAssay AID1845219 (Molecular Pharmacology Branch, DTP, NCI, 2023).

Test system: SYO-1 tumor spheroids, viability % test/control
Test: Anticancer human tumor SYO-1 cell line growth inhibition;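 note: spheroids exposed to agents for 7 days before viability read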;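 for viability, T/C: 100% = DMSO vehicle control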
Details: spheroids with HUVEC and MSC; for IC50: curve of first compound; for viability, T/C: stronger effect = lower value
How it was run: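 Single agents and combinations were tested on spheroids built from tumor cells plus HUVEC and hMSC, at half-log dilutions starting at or near clinical Cmax, else 10 microM; final DMSO 0.25% (v/v).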

[1] = second compound 30 pM, first compound 0.0316 µM
[2] = second compound 30 pM, first compound 0.1 µM
[3] = second compound 30 pM, first compound 0.316 µM
[4] = second compound 30 pM, first compound 1 µM
[5] = second compound 30 pM, first compound 3.16 µM
[6] = second compound 30 pM, first compound 10 µM
[7] = second compound 94.9 pM, first compound 0.0316 µM
[8] = second compound 94.9 pM, first compound 0.1 µM
[9] = second compound 94.9 pM, first compound 0.316 µM
[10] = second compound 94.9 pM, first compound 1 µM
[11] = second compound 94.9 pM, first compound 3.16 µM
[12] = second compound 94.9 pM, first compound 10 µM
[13] = second compound 0.0003 µM, first compound 0.0316 µM
[14] = second compound 0.0003 µM, first compound 0.1 µM
[15] = second compound 0.0003 µM, first compound 0.316 µM
[16] = second compound 0.0003 µM, first compound 1 µM
[17] = second compound 0.0003 µM, first compound 3.16 µM
[18] = second compound 0.0003 µM, first compound 10 µM
[19] = second compound 0.000949 µM, first compound 0.0316 µM
[20] = second compound 0.000949 µM, first compound 0.1 µM
[21] = second compound 0.000949 µM, first compound 0.316 µM
[22] = second compound 0.000949 µM, first compound 1 µM
[23] = second compound 0.000949 µM, first compound 3.16 µM
[24] = second compound 0.000949 µM, first compound 10 µM
[25] = second compound 0.003 µM, first compound 0.0316 µM
[26] = second compound 0.003 µM, first compound 0.1 µM
[27] = second compound 0.003 µM, first compound 0.316 µM
[28] = second compound 0.003 µM, first compound 1 µM
[29] = second compound 0.003 µM, first compound 3.16 µM
[30] = second compound 0.003 µM, first compound 10 µM

| Compound | IC50 (second compound 30 pM) | IC50 (second compound 94.9 pM) | IC50 (second compound 0.0003 µM) | IC50 (second compound 0.000949 µM) | IC50 (second compound 0.003 µM) | viability, T/C [1] | viability, T/C [2] | viability, T/C [3] | viability, T/C [4] | viability, T/C [5] | viability, T/C [6] | viability, T/C [7] | viability, T/C [8] | viability, T/C [9] | viability, T/C [10] | viability, T/C [11] | viability, T/C [12] | viability, T/C [13] | viability, T/C [14] | viability, T/C [15] | also measured |
| --- | --- | --- | --- | --- | --- | --- | --- | --- | --- | --- | --- | --- | --- | --- | --- | --- | --- | --- | --- | --- | --- |
| CC1COCCN1c1cc(-c2ccnn2C)c2ccnc(-c3ccn[nH]3)c2n1 (stereo not given) + COc1cc2c(cc1O)CCNC21CSC2c3c(OC(C)=O)c(C)c4c(c3C(COC1=O)N1C(O)C3Cc5cc(C)c(OC)c(O)c5C(C21)N3C)OCO4 | < 31.6 nM | < 31.6 nM | < 31.6 nM | < 31.6 nM | < 31.6 nM | 3.62% | 1.79% | 1.29% | 0.95% | 0.42% | 0.48% | 1.83% | 1.41% | 1.17% | 0.6% | 0.3% | 0.41% | 1.24% | 1.22% | 0.9% | viability, T/C [16]: 0.63%; viability, T/C [17]: 0.26%; viability, T/C [18]: 0.29%; viability, T/C [19]: 1.03%; viability, T/C [20]: 0.61%; viability, T/C [21]: 0.54%; viability, T/C [22]: 0.31%; viability, T/C [23]: 0.2%; viability, T/C [24]: 0.19%; viability, T/C [25]: 0.11%; viability, T/C [26]: 0.11%; viability, T/C [27]: 0.09%; viability, T/C [28]: 0.09%; viability, T/C [29]: 0.1%; viability, T/C [30]: 0.16% |
| COc1cc(C)[nH]c(=O)c1CN1CCc2c(Cl)cc(C(OC)C3COC3)c(Cl)c2C1=O (stereo not given) + COc1cc2c(cc1O)CCNC21CSC2c3c(OC(C)=O)c(C)c4c(c3C(COC1=O)N1C(O)C3Cc5cc(C)c(OC)c(O)c5C(C21)N3C)OCO4 | 1490 nM | 198 nM | < 31.6 nM | < 31.6 nM | < 31.6 nM | 104% | 104% | 79.3% | 55.3% | 42.5% | 40.5% | 94% | 65.8% | 39.9% | 20.9% | 16.5% | 11.5% | 6.74% | 4% | 3.76% | viability, T/C [16]: 3.14%; viability, T/C [17]: 2.73%; viability, T/C [18]: 2.74%; viability, T/C [19]: 0.89%; viability, T/C [20]: 0.96%; viability, T/C [21]: 0.72%; viability, T/C [22]: 0.67%; viability, T/C [23]: 0.86%; viability, T/C [24]: 0.76%; viability, T/C [25]: 0.11%; viability, T/C [26]: 0.09%; viability, T/C [27]: 0.1%; viability, T/C [28]: 0.11%; viability, T/C [29]: 0.11%; viability, T/C [30]: 0.17% |
| Cc1cc(C)c(CNC(=O)c2cc(-c3ccc(CN4CCOCC4)cc3)cc3c2cnn3C2CCCC2)c(=O)[nH]1 + COc1cc2c(cc1O)CCNC21CSC2c3c(OC(C)=O)c(C)c4c(c3C(COC1=O)N1C(O)C3Cc5cc(C)c(OC)c(O)c5C(C21)N3C)OCO4 | > 10000 nM | 7980 nM | < 31.6 nM | < 31.6 nM | < 31.6 nM | 103% | 97.2% | 100% | 103% | 107% | 96.3% | 102% | 96.3% | 99.2% | 99.8% | 84.5% | 41.1% | 18.4% | 14.3% | 13.3% | viability, T/C [16]: 11%; viability, T/C [17]: 12.2%; viability, T/C [18]: 3.97%; viability, T/C [19]: 0.91%; viability, T/C [20]: 0.86%; viability, T/C [21]: 1.11%; viability, T/C [22]: 0.97%; viability, T/C [23]: 0.9%; viability, T/C [24]: 1.08%; viability, T/C [25]: 0.13%; viability, T/C [26]: 0.13%; viability, T/C [27]: 0.13%; viability, T/C [28]: 0.15%; viability, T/C [29]: 0.14%; viability, T/C [30]: 0.2% |
| [2H]c1nc(C)nc([2H])c1-c1cc(NC[C@@H](C)c2cccc3c(C(=O)NC)ccnc23)ncn1 + COc1cc2c(cc1O)CCNC21CSC2c3c(OC(C)=O)c(C)c4c(c3C(COC1=O)N1C(O)C3Cc5cc(C)c(OC)c(O)c5C(C21)N3C)OCO4 | > 10000 nM | > 10000 nM | < 31.6 nM | < 31.6 nM | < 31.6 nM | 95.9% | 101% | 102% | 102% | 104% | 102% | 97.7% | 97.1% | 99.6% | 98.8% | 100% | 95.7% | 10.9% | 11.6% | 12.2% | viability, T/C [16]: 11.5%; viability, T/C [17]: 13.1%; viability, T/C [18]: 5.66%; viability, T/C [19]: 0.9%; viability, T/C [20]: 0.98%; viability, T/C [21]: 0.92%; viability, T/C [22]: 0.87%; viability, T/C [23]: 0.92%; viability, T/C [24]: 0.94%; viability, T/C [25]: 0.96%; viability, T/C [26]: 1.13%; viability, T/C [27]: 4.62%; viability, T/C [28]: 0.12%; viability, T/C [29]: 0.12%; viability, T/C [30]: 0.2% |
